# According to patent US4126616A, “N-propylnorapomorphine diesters” (Hinshaw; William B., priority 1976, dated 1978):
# Where a name gives a salt, the structure may show the parent alone. Read-outs that look alike come from different tables or passages of the source.
# Test system: caudate lesioned mouse
# Experiment: caudate lesioned mouse test (anti-parkinson activity)
# Assay type: in vivo
# Details: for ED50: caudate lesioned mouse; for responders at 5.2 µmol/kg: dose 0.0052 m. mole/kg; for Molar Potency Ratio Claimed/Ref. Ester: claimed N-propyl ester vs corresponding N-methyl reference ester
# How it was run: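 Mice with unilateral caudate lesions, recovered ≥14 days, kept only if circling toward lesion in all three periods after apomorphine 1.7 mg/kg i.p. Test drugs given in 1% gum tragacanth; doses as mg/kg free base.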
# [1] = Mus musculus, 0.5 h, dose 0.026 m. mole/kg, 1/2 h post-drug, read-out: No. Mice Affected/No. Mice Tested, 1/2 h (converted)
# [2] = Mus musculus, dose 0.026 m. mole/kg, 1 h post-drug, read-out: No. Mice Affected/No. Mice Tested, 1 h (converted)
# [3] = Mus musculus, dose 0.026 m. mole/kg, 4 h post-drug, read-out: No. Mice Affected/No. Mice Tested, 4 h (converted)
# [4] = Mus musculus, dose 0.026 m. mole/kg, 6 h post-drug, read-out: No. Mice Affected/No. Mice Tested, 6 h (converted)
# [5] = Mus musculus, dose 0.026 m. mole/kg, 24 h post-drug, read-out: No. Mice Affected/No. Mice Tested, 24 h
# [6] = Mus musculus, dose 0.026 m. mole/kg, total, read-out: No. Mice Affected/No. Mice Tested, Total (converted)
# [7] = Mus musculus, 0.5 h, read-out: No. Mice Affected/No. Mice Tested, 1/2 h
# [8] = Mus musculus, 1 h, read-out: No. Mice Affected/No. Mice Tested, 1 h
# [9] = Mus musculus, 2 h, read-out: No. Mice Affected/No. Mice Tested, 2 h
# [10] = Mus musculus, 4 h, read-out: No. Mice Affected/No. Mice Tested, 4 h
# [11] = Mus musculus, 6 h, read-out: No. Mice Affected/No. Mice Tested, 6 h
# [12] = Mus musculus, 24 h, read-out: No. Mice Affected/No. Mice Tested, 24 h
# [13] = Mus musculus, read-out: No. Mice Affected/No. Mice Tested, Total
smiles,measurement,setting,value
"CCCN1CCc2cccc3c2C1Cc1ccc(OC(=O)c2cc(OC)c(OC)c(OC)c2)c(OC(=O)c2cc(OC)c(OC)c(OC)c2)c1-3 (centres unmarked) [Ex. 1L, N-Propylnorapomorphine bis-3,4,5-trimethoxybenzoate hydrochloride]",ED50,read-out: ED50,15 µmol/kg
same,responders at 5.2 µmol/kg,"Mus musculus, 0.5 h, 1/2 h post-drug, read-out: No. Mice Affected/No. Mice Tested, 1/2 h",0%
same,responders at 26 µmol/kg,[1],75%
same,responders at 5.2 µmol/kg,"Mus musculus, 1 h post-drug, read-out: No. Mice Affected/No. Mice Tested, 1 h",0%
same,responders at 5.2 µmol/kg,"Mus musculus, 2 h post-drug, read-out: No. Mice Affected/No. Mice Tested, 2 h",0%
same,responders at 5.2 µmol/kg,"Mus musculus, 4 h post-drug, read-out: No. Mice Affected/No. Mice Tested, 4 h",0%
same,responders at 5.2 µmol/kg,"Mus musculus, 6 h post-drug, read-out: No. Mice Affected/No. Mice Tested, 6 h",0%
same,responders at 5.2 µmol/kg,"Mus musculus, 24 h post-drug, read-out: No. Mice Affected/No. Mice Tested, 24 h",0%
same,responders at 5.2 µmol/kg,"Mus musculus, total, read-out: No. Mice Affected/No. Mice Tested, Total",0%
same,responders at 26 µmol/kg,[2],75%
same,responders at 26 µmol/kg,"Mus musculus, dose 0.026 m. mole/kg, 2 h post-drug, read-out: No. Mice Affected/No. Mice Tested, 2 h (converted)",100%
same,responders at 26 µmol/kg,[3],100%
same,responders at 26 µmol/kg,[4],100%
same,responders at 26 µmol/kg,[5],0%
same,responders at 26 µmol/kg,[6],100%
"CCCN1CCc2cccc3c2C1Cc1ccc(OC(=O)c2ccccc2)c(OC(=O)c2ccccc2)c1-3 (centres unmarked) [Ex. 1E, N-Propylnorapomorphine dibenzoate hydrochloride]",responders at 52 µmol/kg,"Mus musculus, 0.5 h, dose 0.052 m. mole/kg, 1/2 h post-drug, read-out: No. Mice Affected/No. Mice Tested, 1/2 h (converted)",0%
same,responders at 52 µmol/kg,"Mus musculus, dose 0.052 m. mole/kg, 1 h post-drug, read-out: No. Mice Affected/No. Mice Tested, 1 h (converted)",0%
same,responders at 52 µmol/kg,"Mus musculus, dose 0.052 m. mole/kg, 4 h post-drug, read-out: No. Mice Affected/No. Mice Tested, 4 h (converted)",66.7%
same,responders at 52 µmol/kg,"Mus musculus, dose 0.052 m. mole/kg, 6 h post-drug, read-out: No. Mice Affected/No. Mice Tested, 6 h (converted)",33.3%
same,responders at 52 µmol/kg,"Mus musculus, dose 0.052 m. mole/kg, 24 h post-drug, read-out: No. Mice Affected/No. Mice Tested, 24 h",0%
same,responders at 52 µmol/kg,"Mus musculus, dose 0.052 m. mole/kg, total, read-out: No. Mice Affected/No. Mice Tested, Total (converted)",66.7%
same,Molar Potency Ratio Claimed/Ref. Ester,,≥ 8
"CCC(=O)Oc1ccc2c(c1OC(=O)CC)-c1cccc3c1C(C2)N(C)CC3 (centres unmarked) [Ref. 1, reference compound]",responders at 26 µmol/kg,[7],0%
same,responders at 52 µmol/kg,[7],25%
same,responders at 104 µmol/kg,[7],41.7%
same,responders at 208 µmol/kg,[7],100%
same,responders at 26 µmol/kg,[8],0%
same,responders at 52 µmol/kg,[8],25%
same,responders at 104 µmol/kg,[8],41.7%
same,responders at 208 µmol/kg,[8],100%
same,responders at 26 µmol/kg,[9],0%
same,responders at 52 µmol/kg,[9],0%
same,responders at 104 µmol/kg,[9],0%
same,responders at 208 µmol/kg,[9],100%
same,responders at 26 µmol/kg,[10],0%
same,responders at 52 µmol/kg,[10],0%
same,responders at 104 µmol/kg,[10],0%
same,responders at 208 µmol/kg,[10],50%
same,responders at 26 µmol/kg,[11],0%
same,responders at 52 µmol/kg,[11],0%
same,responders at 104 µmol/kg,[11],0%
same,responders at 208 µmol/kg,[11],0%
same,responders at 26 µmol/kg,[12],0%
same,responders at 208 µmol/kg,[12],0%
same,ED50,Mus musculus,98 µmol/kg
same,responders at 26 µmol/kg,[13],0%
same,responders at 52 µmol/kg,[13],25%
same,responders at 104 µmol/kg,[13],41.7%
same,responders at 208 µmol/kg,[13],100%
"CCCN1CCc2cccc3c2C1Cc1ccc(OC(=O)C(C)(C)C)c(OC(=O)C(C)(C)C)c1-3 (centres unmarked) [Ex. 1C, N-Propylnorapomorphine dipivaloate]",responders at 26 µmol/kg,[1],0%
same,responders at 26 µmol/kg,[2],0%
same,responders at 26 µmol/kg,[3],100%
same,responders at 26 µmol/kg,[4],100%
same,responders at 26 µmol/kg,[5],0%
same,responders at 26 µmol/kg,[6],100%
same,Molar Potency Ratio Claimed/Ref. Ester,,≥ 16
